From US6461997B1, “Triazole sulfones having herbicidal activity” (Monsanto Technology LLC, priority 1999, dated 2002)

Assays:
[1] = tested on: BRAPP (broadleaf signalgrass); experiment: Pre-emergence herbicidal activity, warm season; type: in vivo, Brachiaria platyphylla; conditions: GR80 = lowest tested rate (300, 100, 30, 10 g/ha) with 80% or greater inhibition; approx. 14 days after treating; 30/21° C.
Procedure, shortened: (§1)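 Seeds sown in sterilised fertilised topsoil received surface-applied compound in 50:50 acetone/water, typically at 300, 100, 30 and 10 g/ha, then greenhouse-grown at 30/21° C (warm-season species) or 18/13° C (cool-season species). Percent inhibition versus untreated plants was scored at about 14 days, giving GR80; an asterisk marks activity short of 80% at the top rate.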

[2] = tested on: GALAP (catchweed bedstraw); experiment: Pre-emergence herbicidal activity, cool season; type: in vivo, Galium aparine; conditions: lowest tested rate with 80% or greater inhibition; rates 300, 100, 30, 10 g/ha; about 14 days
Procedure, shortened: (§2)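 GR80 values derive from percent inhibition relative to untreated plants, read roughly 14 days after sowing and pre-emergence soil-surface treatment (compound in 50:50 acetone/water; rates typically 10, 30, 100, 300 g/ha). Warm-season weeds grew at 30/21° C day/night, cool-season ones at 18/13° C; an asterisk marks activity without reaching 80% at the highest rate.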

[3] = tested on: AGRRE (quackgrass (seedling)); experiment: Pre-emergence herbicidal activity, cool season; type: in vivo, Elymus repens; conditions: GR80 = lowest tested rate (300, 100, 30, 10 g/ha) with 80% or greater inhibition; approx. 14 days after treating; 18/13° C.
Experimental: (§3) Tables 5 to 8 summarize results of tests conducted as described below to determine the pre-emergence herbicidal activity, in the form of a GR80 value, of illustrative compounds of this invention. […] Compounds of the invention were typically applied at rates of 300, 100, 30, and 10 g/ha. Where herbicidal activity was evident but 80% inhibition was not achieved at the highest rate tested, an asterisk (*) is shown in the following tables.
(§4) The pre-emergence tests were conducted by the following procedure. Topsoil was sieved to pass through a 1.27 cm screen. Fertilizer was added to the topsoil and the mixture was then sterilized by heating. The topsoil mixture was placed in a pot and compacted to a depth of 1.0 to 1.25 cm from the top of the pot. Seeds of each of several monocotyledonous and dicotyledonous annual plant species were placed on top of the soil. Additional soil was subsequently placed over the seeds to level-fill the pot. A known amount of each test compound dissolved or suspended in an appropriate organic solvent was diluted with a 50:50 mix of acetone and water and applied to the surface of the soil. After treatment the plants were placed in a greenhouse where they received 0.64 cm of overhead irrigation. All subsequent watering consisted of a light overhead mist and/or subirrigation as needed for germination and growth. Tables 5 and 6 below relate to warm season plant species which were placed after pre-emergence treatment in a greenhouse with a 30/21° C. day/night temperature regime. Tables 7 and 8 below relates to cool season plant species placed after pre-emergence treatment in a greenhouse or growth chamber with an 18/13° C. day/night temperature regime.
(§5) Approximately 14 days after planting and treating, the plants were observed and herbicidal efficacy recorded as percent inhibition by comparison with untreated plants.
(§6) The plant species usually regarded as weeds which were utilized in the tests are identified in the tables below according to the following legend, in which “d” indicates a dicotyledonous species and “m” a monocotyledonous species. All monocotyledonous species included in the tests herein are grasses.

ALOMY (blackgrass) = experiment: Pre-emergence herbicidal activity, cool season; type: in vivo, Alopecurus myosuroides; conditions: GR80 = lowest tested rate (300, 100, 30, 10 g/ha) with 80% or greater inhibition; approx. 14 days after treating; 18/13° C.
Procedure, shortened: (§7)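 Under 18/13 °C (ALOMY, POLCO) or 30/21 °C (PANMI, DIGSA) day/night, pre-emergence soil-surface treatments at 300, 100, 30 and 10 g/ha were evaluated after roughly 14 days. GR80 reflects percent inhibition relative to untreated plants.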

POROL (common purslane) = experiment: Pre-emergence herbicidal activity, warm season; type: in vivo, Portulaca oleracea; conditions: GR80 = lowest tested rate (300, 100, 30, 10 g/ha) with 80% or greater inhibition; approx. 14 days after treating; 30/21° C.
Procedure, shortened: as §2

[4] = tested on: SORHA (johnsongrass (seedling)); experiment: Pre-emergence herbicidal activity, warm season; type: in vivo, Sorghum halepense; conditions: GR80 = lowest tested rate (300, 100, 30, 10 g/ha) with 80% or greater inhibition; approx. 14 days after treating; 30/21° C.
Procedure, shortened: as §1

PANDI (fall panicum) = experiment: Pre-emergence herbicidal activity, warm season; type: in vivo, Panicum dichotomiflorum; conditions: GR80 = lowest tested rate (300, 100, 30, 10 g/ha) with 80% or greater inhibition; approx. 14 days after treating; 30/21° C.
Procedure, shortened: as §1

[5] = tested on: AGSST (creeping bentgrass); experiment: Pre-emergence herbicidal activity, cool season; type: in vivo, Agrostis stolonifera; conditions: GR80 = lowest tested rate (300, 100, 30, 10 g/ha) with 80% or greater inhibition; approx. 14 days after treating; 18/13° C.
Procedure, shortened: as §2

ECHCG (barnyardgrass) = experiment: Pre-emergence herbicidal activity, warm season; type: in vivo, Echinochloa crus-galli; conditions: GR80 = lowest tested rate (300, 100, 30, 10 g/ha) with 80% or greater inhibition; approx. 14 days after treating; 30/21° C.
Procedure, shortened: as §1

STEME (common chickweed) = experiment: Pre-emergence herbicidal activity, cool season; type: in vivo, Stellaria media; conditions: lowest tested rate with 80% or greater inhibition; rates 300, 100, 30, 10 g/ha; about 14 days
Procedure, shortened: as §2

SINAR (wild mustard) = experiment: Pre-emergence herbicidal activity, cool season; type: in vivo, Sinapis arvensis; conditions: lowest tested rate with 80% or greater inhibition; rates 300, 100, 30, 10 g/ha; about 14 days
Procedure, shortened: as §2

SASKR (russian thistle) = experiment: Pre-emergence herbicidal activity, cool season; type: in vivo, Salsola kali; conditions: lowest tested rate with 80% or greater inhibition; rates 300, 100, 30, 10 g/ha; about 14 days
Procedure, shortened: as §2

AVEFA (wild oat) = experiment: Pre-emergence herbicidal activity, cool season; type: in vivo, Avena fatua; conditions: GR80 = lowest tested rate (300, 100, 30, 10 g/ha) with 80% or greater inhibition; approx. 14 days after treating; 18/13° C.
Procedure, shortened: as §2

[6] = tested on: LAMPU (purple deadnettle); experiment: Pre-emergence herbicidal activity, cool season; type: in vivo, Lamium purpureum; conditions: lowest tested rate with 80% or greater inhibition; rates 300, 100, 30, 10 g/ha; about 14 days
Procedure, shortened: as §2

SOLNI (black nightshade) = experiment: Pre-emergence herbicidal activity, warm season; type: in vivo, Solanum nigrum; conditions: GR80 = lowest tested rate (300, 100, 30, 10 g/ha) with 80% or greater inhibition; approx. 14 days after treating; 30/21° C.
Procedure, shortened: as §2

[7] = tested on: CHEAL (common lambsquarters); experiment: Pre-emergence herbicidal activity, warm season; type: in vivo, Chenopodium album; conditions: GR80 = lowest tested rate (300, 100, 30, 10 g/ha) with 80% or greater inhibition; approx. 14 days after treating; 30/21° C.
Procedure, shortened: as §2

[8] = tested on: PANMI (wild proso millet); experiment: Pre-emergence herbicidal activity, warm season; type: in vivo, Panicum miliaceum; conditions: GR80 = lowest tested rate (300, 100, 30, 10 g/ha) with 80% or greater inhibition; approx. 14 days after treating; 30/21° C.
Procedure, shortened: as §7

[9] = tested on: VERPE (creeping speedwell); experiment: Pre-emergence herbicidal activity, cool season; type: in vivo, Veronica persicaria; conditions: lowest tested rate with 80% or greater inhibition; rates 300, 100, 30, 10 g/ha; about 14 days
Procedure, shortened: as §2

POLCO (wild buckwheat) = experiment: Pre-emergence herbicidal activity, cool season; type: in vivo, Polygonum convolvulus; conditions: lowest tested rate with 80% or greater inhibition; rates 300, 100, 30, 10 g/ha; about 14 days
Procedure, shortened: as §7

[10] = tested on: AEGCY (jointed goatgrass); experiment: Pre-emergence herbicidal activity, cool season; type: in vivo, Aegilops cylindrica; conditions: GR80 = lowest tested rate (300, 100, 30, 10 g/ha) with 80% or greater inhibition; approx. 14 days after treating; 18/13° C.
Experimental: as §3, §4, §5, §6

SETFA (giant foxtail) = experiment: Pre-emergence herbicidal activity, warm season; type: in vivo, Setaria faberi; conditions: GR80 = lowest tested rate (300, 100, 30, 10 g/ha) with 80% or greater inhibition; approx. 14 days after treating; 30/21° C.
Procedure, shortened: as §1

DIGSA (large crabgrass) = experiment: Pre-emergence herbicidal activity, warm season; type: in vivo, Digitaria sanguinalis; conditions: GR80 = lowest tested rate (300, 100, 30, 10 g/ha) with 80% or greater inhibition; approx. 14 days after treating; 30/21° C.
Procedure, shortened: as §7

SORVU (shattercane) = experiment: Pre-emergence herbicidal activity, warm season; type: in vivo, Sorghum vulgare; conditions: GR80 = lowest tested rate (300, 100, 30, 10 g/ha) with 80% or greater inhibition; approx. 14 days after treating; 30/21° C.
Procedure, shortened: as §1

LOLMG (annual ryegrass) = experiment: Pre-emergence herbicidal activity, cool season; type: in vivo, Lolium multiflorum; conditions: GR80 = lowest tested rate (300, 100, 30, 10 g/ha) with 80% or greater inhibition; approx. 14 days after treating; 18/13° C.
Procedure, shortened: as §2

SETVI (green foxtail) = experiment: Pre-emergence herbicidal activity, cool season; type: in vivo, Setaria viridis; conditions: GR80 = lowest tested rate (300, 100, 30, 10 g/ha) with 80% or greater inhibition; approx. 14 days after treating; 18/13° C.
Procedure, shortened: as §2

SMILES | Pre-emergence activity GR80, GALAP [2] [g/ha] | Pre-emergence activity (GR80) AGRRE [3] [g/ha] | Pre-emergence activity (GR80) ALOMY (ALOMY (blackgrass)) [g/ha] | Pre-emergence activity (GR80) POROL (POROL (common purslane)) [g/ha] | Pre-emergence activity (GR80) AGSST [5] [g/ha] | Pre-emergence activity GR80, STEME (STEME (common chickweed)) [g/ha] | Pre-emergence activity GR80, SINAR (SINAR (wild mustard)) [g/ha] | Pre-emergence activity GR80, SASKR (SASKR (russian thistle)) [g/ha] | Pre-emergence activity (GR80) AVEFA (AVEFA (wild oat)) [g/ha] | Pre-emergence activity GR80, LAMPU [6] [g/ha] | Pre-emergence activity (GR80) SOLNI (SOLNI (black nightshade)) [g/ha] | Pre-emergence activity (GR80) PANMI [8] [g/ha] | Pre-emergence activity GR80, VERPE [9] [g/ha] | Pre-emergence activity GR80, POLCO (POLCO (wild buckwheat)) [g/ha] | Pre-emergence activity (GR80) AEGCY [10] [g/ha] | Pre-emergence activity (GR80) SETFA (SETFA (giant foxtail)) [g/ha] | Pre-emergence activity (GR80) DIGSA (DIGSA (large crabgrass)) [g/ha] | Pre-emergence activity (GR80) SETVI (SETVI (green foxtail)) [g/ha] | also measured
CCCN(CC)C(=O)n1cnc(S(=O)(=O)C(F)(F)SCC)n1 [Example 51] | 100 | 300 | 300 | 300 | 10 | 10 | 10 | 100 | 300 | 10 | 300 | 100 | 10 | 100 | 300 | 100 | 100 | 100 | Pre-emergence activity (GR80) BRAPP [1]: 100 g/ha; Pre-emergence activity (GR80) SORHA [4]: 100 g/ha; Pre-emergence activity (GR80) PANDI (PANDI (fall panicum)): 100 g/ha; Pre-emergence activity (GR80) ECHCG (ECHCG (barnyardgrass)): 100 g/ha; Pre-emergence activity (GR80) CHEAL [7]: 10 g/ha; Pre-emergence activity (GR80) SORVU (SORVU (shattercane)): 30 g/ha; Pre-emergence activity (GR80) LOLMG (LOLMG (annual ryegrass)): 100 g/ha
COCCN(C)C(=O)n1cnc(S(=O)(=O)C(F)(F)C(F)(F)Br)n1 [Example 76] | 100 | 100 | 300 | 300 | 100 | 300 | 10 | 30 | 300 | 100 | 300 | 100 | 30 | 300 | 300 | 300 | 300 | 100 | –
